Laboratory results published in BindingDB's records for doi:10.1021/acs.jmedchem.8b00082 (Abbvie, 2018).

Columns and labels:
[1] = Inhibition of HCV genotype 1b Con1 NS5A expressed in HuH7 cell infected HCV genotype 3a assessed as decrease in viral replication after 3 days by luciferase reporter gene assay
[2] = Inhibition of NS5A in HuH7 cell infected HCV genotype 1a H77 assessed as decrease in viral replication after 3 days in presence of 40% human plasma by luciferase reporter gene assay
[3] = Inhibition of HCV genotype 1b Con1 NS5A expressed in HuH7 cell infected HCV genotype 4a assessed as decrease in viral replication after 3 days by luciferase reporter gene assay
[4] = Inhibition of HCV genotype 1b Con1 NS5A expressed in HuH7 cell infected HCV genotype 2b assessed as decrease in viral replication after 3 days by luciferase reporter gene assay
[5] = Inhibition of NS5A in HuH7 cell infected HCV genotype 1b Con1 assessed as decrease in viral replication after 3 days in presence of 40% human plasma by luciferase reporter gene assay
[6] = Inhibition of HCV genotype 1b Con1 NS5A expressed in HuH7 cell infected HCV genotype 2a assessed as decrease in viral replication after 3 days by luciferase reporter gene assay
[7] = Inhibition of HCV genotype 1b Con1 NS5A expressed in HuH7 cell infected HCV genotype 6a assessed as decrease in viral replication after 3 days by luciferase reporter gene assay
[8] = Inhibition of NS5A in HuH7 cell infected HCV genotype 1a H77 assessed as decrease in viral replication after 3 days by luciferase reporter gene assay
[9] = Inhibition of NS5A in HuH7 cell infected HCV genotype 1b Con1 assessed as decrease in viral replication after 3 days by luciferase reporter gene assay
[10] = Inhibition of HCV genotype 1b Con1 NS5A expressed in HuH7 cell infected HCV genotype 5a assessed as decrease in viral replication after 3 days by luciferase reporter gene assay

SMILES	EC50 [1]	EC50 [2]	EC50 [3]	EC50 [4]	EC50 [5]	EC50 [6]	EC50 [7]	EC50 [8]	EC50 [9]	EC50 [10]
COC(=O)N[C@H](C(=O)N1CCC[C@H]1c1nc2ccc([C@H]3CC[C@H](c4ccc5nc([C@@H]6CCCN6C(=O)[C@@H](NC(=O)OC)C(C)C)[nH]c5c4)N3c3cc(F)c(N4CCC(c5ccccc5)CC4)c(F)c3)cc2[nH]1)C(C)C	6 pM	76 pM	4 pM	6 pM	183 pM	8 pM	8 pM	2 pM	6 pM	3 pM
COC(=O)N[C@H](C(=O)N1CCC[C@H]1c1nc2cc(F)c([C@H]3CC[C@H](c4cc5[nH]c([C@@H]6CCCN6C(=O)[C@@H](NC(=O)OC)C6CCOCC6)nc5cc4F)N3c3cc(F)c(N4CCC(c5ccccc5)CC4)c(F)c3)cc2[nH]1)C1CCOCC1	11 pM	136 pM	6 pM	8 pM	337 pM	9 pM	12 pM	4 pM	8 pM	6 pM
COC(=O)N[C@H](C(=O)N1CCC[C@H]1c1nc2cc(F)c([C@H]3CC[C@H](c4cc5[nH]c([C@@H]6CCCN6C(=O)[C@@H](NC(=O)OC)C6CCOCC6)nc5cc4F)N3c3cc(F)c(N4CCC(c5ccc(F)cc5)CC4)c(F)c3)cc2[nH]1)C1CCOCC1	7 pM	220 pM	6 pM	8 pM	522 pM	8 pM	8 pM	3 pM	7 pM	5 pM
COC(=O)N[C@H](C(=O)N1CCC[C@H]1c1nc2cc([C@H]3CC[C@H](c4cc5nc([C@@H]6CCCN6C(=O)[C@@H](NC(=O)OC)[C@@H](C)OC)[nH]c5cc4F)N3c3cc(F)c(N4CCC(c5ccc(F)cc5)CC4)c(F)c3)c(F)cc2[nH]1)[C@@H](C)OC [A-1325912.0]	2.1 pM	64 pM	1.9 pM	1.9 pM	200 pM	2.3 pM	2.8 pM	1.8 pM	4.3 pM	1.4 pM
COC(=O)N[C@H](C(=O)N1CCC[C@H]1C(=O)Nc1ccc([C@@H]2CC[C@@H](c3ccc(NC(=O)[C@@H]4CCCN4C(=O)[C@@H](NC(=O)OC)C(C)C)cc3)N2c2ccc(C(C)(C)C)cc2)cc1)C(C)C [CHEBI:85183]	19 pM	186 pM	1.7 pM	4.3 pM	56 pM	12 pM	366 pM	14 pM	5 pM	3.2 pM
